How the values were obtained:
[1] = target: T1, human BRD4 bromodomain II (Homo sapiens, UniProt O60885); assay: Bromodomain binding assay (AlphaScreen), BRD4 BDII; settings: AlphaScreen assay, Table C2; read-out: BRD4 BDII IC50
T1 construct: human BRD4 bromodomain II [based on Genbank NM_058243, residues 349-460]; host or cells: E. coli
Method in brief: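 AlphaScreen competition: His6-BRD4 BDI (aa 44-170) or BDII (aa 349-460) vs biotin-H4(1-21) K5/K8/K12/K16Ac peptide; Ni-chelate acceptor/streptavidin donor beads. HEPES pH 7.5, NaCl, CHAPS, BSA, 1% DMSO; RT. 10-pt 3-fold titration, % peptide binding fitted → IC50.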

[2] = system: human SKM-1 acute myeloid leukemia cells; assay: SKM-1 antiproliferation cell-based assay (ATPlite); settings: Homo sapiens, SKM-1, 96 h, SKM-1 antiproliferation assay, 4 days, Table C2
Method in brief: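 Log-phase cells in RPMI 1640/15% FBS were seeded at 34722 cells/mL and exposed for 4 days to nine-concentration DMSO serial dilutions in triplicate. Viability was read as ATP luminescence (ATPlite 1step), and IC50 values came from variable-slope non-linear regression.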

| IC50 [1] [nM] | GI50 [2] [nM] | SMILES |
| --- | --- | --- |
| 1 to 10 | 30 to 300 | CC1=CCN(c2ccc(-c3cccc(-c4ccnc(N5CCNCC5)c4)c3O)cc2Cl)C1=O [Example 356, 1-(3-chloro-2′-hydroxy-3′-(2-(piperazin-1-yl)pyridin-4-yl)-[1,1′-biphenyl]-4-yl)-3-methyl-1H-pyrrol-2(5H)-one] |
| 1 to 10 | 30 to 300 | CN1CCN(c2ccc(-c3cc(F)cc(-c4ccc(CO)c(N5CCNCC5)c4)c3O)cc2Cl)C1=O [Example 358, 1-(3-chloro-5′-fluoro-2′-hydroxy-4″-(hydroxymethyl)-3″-(piperazin-1-yl)-[1,1′:3′,1″-terphenyl]-4-yl)-3-methylimidazolidin-2-one] |
| 1 to 10 | 30 to 300 | C[C@@H]1CN(c2cc(-c3cc(F)cc(-c4ccc(N5CCN(C)C5=O)c(Cl)c4)c3O)ccn2)CCN1 [Example 359, (R)-1-(3-chloro-5′-fluoro-2′-hydroxy-3′-(2-(3-methylpiperazin-1-yl)pyridin-4-yl)-[1,1′-biphenyl]-4-yl)-3-methylimidazolidin-2-one] |
| 1 to 10 | 30 to 300 | CN1CCN(c2ccc(-c3cc(F)cc(-c4ccnc(N5CCC[C@H](N)C5)c4)c3O)cc2Cl)C1=O [Example 360, (S)-1-(3′-(2-(3-aminopiperidin-1-yl)pyridin-4-yl)-3-chloro-5′-fluoro-2′-hydroxy-[1,1′-biphenyl]-4-yl)-3-methylimidazolidin-2-one] |
| 10 to 100 | 300 to 3000 | CN1CCN(c2ccc(-c3cc(F)cc(-c4ccnc(NCCN)c4)c3O)cc2Cl)C1=O [Example 363, 1-(3′-(2-((2-aminoethyl)amino)pyridin-4-yl)-3-chloro-5′-fluoro-2′-hydroxy-[1,1′-biphenyl]-4-yl)-3-methylimidazolidin-2-one] |
| 1 to 10 | 30 to 300 | CC1=CCN(c2ccc(-c3cc(F)cc(-c4ccnc(N5CCNCC5)c4)c3O)cc2Cl)C1=O [Example 366, 1-(3-chloro-5′-fluoro-2′-hydroxy-3′-(2-(piperazin-1-yl)pyridin-4-yl)-[1,1′-biphenyl]-4-yl)-3-methyl-1,5-dihydro-2H-pyrrol-2-one] |
| 1 to 10 | 30 to 300 | CN1CCN(c2ccc(-c3cccc(-c4cc(C5CC5)nc(N5CCNCC5)c4)c3O)cc2Cl)C1=O [Example 368, 1-(3-chloro-3′-(2-cyclopropyl-6-(piperazin-1-yl)pyridin-4-yl)-2′-hydroxy-[1,1′-biphenyl]-4-yl)-3-methylimidazolidin-2-one] |
| 1 to 10 | 30 to 300 | CN1CCN(c2ccc(-c3cc(F)cc(-c4cc(N5CCNCC5)c(=O)n(C)c4)c3O)cc2Cl)C1=O [Example 372, 5-(3′-chloro-5-fluoro-2-hydroxy-4′-(3-methyl-2-oxoimidazolidin-1-yl)-[1,1′-biphenyl]-3-yl)-1-methyl-3-(piperazin-1-yl)pyridin-2(1H)-one] |
| > 100 | ≥ 3000 | COC(=O)c1ncc(-c2cc(F)cc(-c3ccc(N4CCN(C)C4=O)c(Cl)c3)c2O)cc1N1CCNCC1 [Example 376, Methyl 5-(3′-chloro-5-fluoro-2-hydroxy-4′-(3-methyl-2-oxoimidazolidin-1-yl)-[1,1′-biphenyl]-3-yl)-3-(piperazin-1-yl)picolinate] |
| 1 to 10 | 30 to 300 | C[C@@H]1CN(c2cc(-c3cc(F)cc(-c4ccc(N5CCN(C)C5=O)c(Cl)c4)c3O)cn(C)c2=O)CCN1 [Example 377, (R)-5-(3′-chloro-5-fluoro-2-hydroxy-4′-(3-methyl-2-oxoimidazolidin-1-yl)-[1,1′-biphenyl]-3-yl)-1-methyl-3-(3-methylpiperazin-1-yl)pyridin-2(1H)-one] |
| > 100 | 300 to 3000 | CC(=O)N1CCN(c2ccc(-c3cc(F)cc(-c4ccnc(N5CCNCC5)c4)c3O)cc2Cl)C1=O [Example 381, 1-acetyl-3-(3-chloro-5′-fluoro-2′-hydroxy-3′-(2-(piperazin-1-yl)pyridin-4-yl)-[1,1′-biphenyl]-4-yl)imidazolidin-2-one] |
| 1 to 10 | 0.3 to 30 | CC(=O)Nc1cc(-c2cccc(-c3ccc(N4CCN(C)C4=O)c(Cl)c3)c2O)cc(N2CCNCC2)n1 [Example 383, N-(4-(3′-chloro-2-hydroxy-4′-(3-methyl-2-oxoimidazolidin-1-yl)-[1,1′-biphenyl]-3-yl)-6-(piperazin-1-yl)pyridin-2-yl)acetamide] |

More lines, now with the values behind:

| SMILES | IC50 [1] [nM] | GI50 [2] [nM] |
| --- | --- | --- |
| CN1CCN(c2ccc(-c3cc(F)cc(-c4cnc(C#N)c(N5CCNCC5)c4)c3O)cc2Cl)C1=O [Example 357, 5-(3′-chloro-5-fluoro-2-hydroxy-4′-(3-methyl-2-oxoimidazolidin-1-yl)-[1,1′-biphenyl]-3-yl)-3-(piperazin-1-yl)picolinonitrile] | 1 to 10 | 30 to 300 |
| CC(=O)Nc1ccc(-c2cccc(-c3cc(OC4CCC(O)CC4)nc(N4CCNCC4)c3)c2O)cc1F (stereo not drawn) [Example 361, N-(3-fluoro-2′-hydroxy-3′-(2-((4-hydroxycyclohexyl)oxy)-6-(piperazin-1-yl)pyridin-4-yl)-[1,1′-biphenyl]-4-yl)acetamide] | 10 to 100 | 30 to 300 |
| Cc1cc(-c2ccnc(N3CC[C@H](N)C3)c2)c(O)c(-c2ccc(N3CCN(C)C3=O)c(Cl)c2)c1 [Example 362, (S)-1-(3′-(2-(3-aminopyrrolidin-1-yl)pyridin-4-yl)-3-chloro-2′-hydroxy-5′-methyl-[1,1′-biphenyl]-4-yl)-3-methylimidazolidin-2-one] | 1 to 10 | 30 to 300 |
| CC(C)N1CCN(c2ccc(-c3cc(F)cc(-c4ccnc(N5CCNCC5)c4)c3O)cc2Cl)C1=O [Example 364, 1-(3-chloro-5′-fluoro-2′-hydroxy-3′-(2-(piperazin-1-yl)pyridin-4-yl)-[1,1′-biphenyl]-4-yl)-3-isopropylimidazolidin-2-one] | > 100 | ≥ 3000 |
| C#CCN1CCN(c2ccc(-c3cc(F)cc(-c4ccnc(N5CCNCC5)c4)c3O)cc2Cl)C1=O [Example 367, 1-(3-chloro-5′-fluoro-2′-hydroxy-3′-(2-(piperazin-1-yl)pyridin-4-yl)-[1,1′-biphenyl]-4-yl)-3-(prop-2-yn-1-yl)imidazolidin-2-one] | > 100 | 300 to 3000 |
| CN1CCN(c2ccc(-c3cccc(-c4ccc5[nH]c6c(c5c4)CNCC6)c3O)cc2Cl)C1=O [Example 369, 1-(3-chloro-2′-hydroxy-3′-(2,3,4,5-tetrahydro-1H-pyrido[4,3-b]indol-8-yl)-[1,1′-biphenyl]-4-yl)-3-methylimidazolidin-2-one] | 10 to 100 | ≥ 3000 |
| CC(=O)NCc1ncc(-c2cc(F)cc(-c3ccc(N4CCN(C)C4=O)c(Cl)c3)c2O)cc1N1CCNCC1 [Example 370, N-((5-(3′-chloro-5-fluoro-2-hydroxy-4′-(3-methyl-2-oxoimidazolidin-1-yl)-[1,1′-biphenyl]-3-yl)-3-(piperazin-1-yl)pyridin-2-yl)methyl)acetamide] | 1 to 10 | 30 to 300 |
| O=C1OCCN1c1ccc(-c2cc(F)cc(-c3ccnc(N4CCNCC4)c3)c2O)cc1Cl [Example 371, 3-(3-chloro-5′-fluoro-2′-hydroxy-3′-(2-(piperazin-1-yl)pyridin-4-yl)-[1,1′-biphenyl]-4-yl)oxazolidin-2-one] | 10 to 100 | 300 to 3000 |
| O=C1NCCN1c1ccc(-c2cc(F)cc(-c3ccnc(N4CCNCC4)c3)c2O)cc1Cl [Example 373, 1-(3-chloro-5′-fluoro-2′-hydroxy-3′-(2-(piperazin-1-yl)pyridin-4-yl)-[1,1′-biphenyl]-4-yl)imidazolidin-2-one] | 10 to 100 | 300 to 3000 |
| CCc1cc(-c2cccc(-c3ccc(N4CCN(C)C4=O)c(Cl)c3)c2O)cc(N2CCNCC2)n1 [Example 374, 1-(3-chloro-3′-(2-ethyl-6-(piperazin-1-yl)pyridin-4-yl)-2′-hydroxy-[1,1′-biphenyl]-4-yl)-3-methylimidazolidin-2-one] | 1 to 10 | 300 to 3000 |
| CC(=O)Nc1ccc(-c2cccc(-c3cc(OC4CCC(N)CC4)nc(N4CCNCC4)c3)c2O)cc1F (stereo not drawn) [Example 375, N-(3′-(2-((4-aminocyclohexyl)oxy)-6-(piperazin-1-yl)pyridin-4-yl)-3-fluoro-2′-hydroxy-[1,1′-biphenyl]-4-yl)acetamide] | 10 to 100 | 300 to 3000 |
| CN1CCN(c2ccc(-c3cc(F)cc(-c4cc(N5CCC[C@H](N)C5)c(=O)n(C)c4)c3O)cc2Cl)C1=O [Example 378, (S)-3-(3-aminopiperidin-1-yl)-5-(3′-chloro-5-fluoro-2-hydroxy-4′-(3-methyl-2-oxoimidazolidin-1-yl)-[1,1′-biphenyl]-3-yl)-1-methylpyridin-2(1H)-one] | 1 to 10 | 30 to 300 |
| CN1CCN(c2ccc(-c3cc(F)cc(-c4ccnc(C5=CCNCC5)c4)c3O)cc2Cl)C1=O [Example 379, 1-(3-chloro-5′-fluoro-2′-hydroxy-3′-(1′,2′,3′,6′-tetrahydro-[2,4′-bipyridin]-4-yl)-[1,1′-biphenyl]-4-yl)-3-methylimidazolidin-2-one] | 1 to 10 | 30 to 300 |
| Cc1cc(-c2cc(F)cc(-c3ccnc(N4CCNCC4)c3)c2O)ccc1N1CCN(C)C1=O [Example 380, 1-(5′-fluoro-2′-hydroxy-3-methyl-3′-(2-(piperazin-1-yl)pyridin-4-yl)-[1,1′-biphenyl]-4-yl)-3-methylimidazolidin-2-one] | 1 to 10 | 30 to 300 |
| CCc1ncc(-c2cc(F)cc(-c3ccc(N4CCN(C)C4=O)c(Cl)c3)c2O)cc1N1CCNCC1 [Example 382, 1-(3-chloro-3′-(6-ethyl-5-(piperazin-1-yl)pyridin-3-yl)-5′-fluoro-2′-hydroxy-[1,1′-biphenyl]-4-yl)-3-methylimidazolidin-2-one] | 1 to 10 | 30 to 300 |
